Test results published in US5840722A, “Use of carboxylic acid derivatives as drugs” (BASF Aktiengesellschaft, priority 1994, dated 1998).
Where two headings read alike, the source gives them in different places.

How the values were obtained:
human ETA receptor = biological target: T1, human ETA receptor (Homo sapiens, UniProt P25101); experiment: Receptor-binding studies, ETA receptor binding assay ([125I]-ET1)
T1 construct: expressed in transfected cells; host or cells: CHO cells (membranes)
T1 sequence (P25101 21-427): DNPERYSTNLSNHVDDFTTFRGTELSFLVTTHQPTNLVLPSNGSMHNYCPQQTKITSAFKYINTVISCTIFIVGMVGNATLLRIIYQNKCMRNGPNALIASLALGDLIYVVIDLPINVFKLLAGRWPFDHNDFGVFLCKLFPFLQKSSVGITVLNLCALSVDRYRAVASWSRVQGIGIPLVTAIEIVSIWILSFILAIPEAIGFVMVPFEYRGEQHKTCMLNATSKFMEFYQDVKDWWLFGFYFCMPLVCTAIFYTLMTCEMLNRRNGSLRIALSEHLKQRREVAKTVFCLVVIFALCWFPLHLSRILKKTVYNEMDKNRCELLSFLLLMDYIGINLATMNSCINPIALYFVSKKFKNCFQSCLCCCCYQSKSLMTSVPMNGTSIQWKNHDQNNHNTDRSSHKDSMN
Procedure: After 48 h, the cells were washed with PBS and incubated with 0.05% trypsin-containing PBS for 5 min. […] The membranes were centrifuged at 20,000×g for 10 min, and the pellet was stored in liquid nitrogen. […] (ETB receptor assay) in the presence and absence of test substance. The non-specific binding was determined using 10^-7 M ET1. After 30 min, the free and the bound radioligand were separated by filtration through a GF/B glass fiber filter (Whatman, England) in a Skatron cell collector (Skatron, Lier, Norway), and the filters were washed with ice-cold tris-HCl buffer, pH 7.4 with 0.2% BSA. The radioactivity collected on the filters was quantified using a Packard 2200 CA liquid scintillation counter. The Ki values were determined by non-linear regression analysis using the LIGAND program.

ETB receptor = biological target: T2, ETB receptor (Cavia porcellus, UniProt H0VTF3); experiment: Receptor-binding studies, ETB receptor binding assay ([125I]-RZ3, guinea pig cerebellar membranes)
T2 construct: Guinea pig cerebella were homogenized in a Potter-Elvejhem homogenizer; from tissue; host or cells: guinea pig cerebellum (membranes)
T2 sequence (H0VTF3 27-415): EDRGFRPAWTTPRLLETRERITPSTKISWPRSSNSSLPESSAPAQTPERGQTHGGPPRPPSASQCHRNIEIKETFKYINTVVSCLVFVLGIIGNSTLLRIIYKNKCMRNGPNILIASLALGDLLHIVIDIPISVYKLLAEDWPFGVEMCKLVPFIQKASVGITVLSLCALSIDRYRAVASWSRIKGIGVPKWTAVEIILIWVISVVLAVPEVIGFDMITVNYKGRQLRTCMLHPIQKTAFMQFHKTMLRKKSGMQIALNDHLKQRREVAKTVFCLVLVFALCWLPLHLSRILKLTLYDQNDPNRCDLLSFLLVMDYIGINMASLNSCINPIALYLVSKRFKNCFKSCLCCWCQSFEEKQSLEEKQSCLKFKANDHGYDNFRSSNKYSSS
Procedure: Cloned human ETA receptor-expressing CHO cells and guinea pig cerebellar membranes with>60% ETB receptors compared with ETA receptors were used for binding studies.
Guinea pig cerebella were homogenized in a Potter-Elvejhem homogenizer and obtained by differential centrifugation at 1000×g for 10 min and repeated centrifugation of the supernatant at 20,000×g for 10 min.
(ETB receptor assay) in the presence and absence of test substance. The non-specific binding was determined using 10^-7 M ET1. After 30 min, the free and the bound radioligand were separated by filtration through a GF/B glass fiber filter (Whatman, England) in a Skatron cell collector (Skatron, Lier, Norway), and the filters were washed with ice-cold tris-HCl buffer, pH 7.4 with 0.2% BSA. The radioactivity collected on the filters was quantified using a Packard 2200 CA liquid scintillation counter.
The Ki values were determined by non-linear regression analysis using the LIGAND program.

[1] = biological target: T3, endothelin receptor of subtype A (Rattus norvegicus, UniProt P26684); experiment: Functional in vitro assay system for endothelin receptor (subtype A) antagonists (ET1-induced intracellular calcium increase); type: cell-based
T3 construct: endogenous endothelin receptor of subtype A has been detected; endogenous in cells
T3 sequence (P26684 21-426): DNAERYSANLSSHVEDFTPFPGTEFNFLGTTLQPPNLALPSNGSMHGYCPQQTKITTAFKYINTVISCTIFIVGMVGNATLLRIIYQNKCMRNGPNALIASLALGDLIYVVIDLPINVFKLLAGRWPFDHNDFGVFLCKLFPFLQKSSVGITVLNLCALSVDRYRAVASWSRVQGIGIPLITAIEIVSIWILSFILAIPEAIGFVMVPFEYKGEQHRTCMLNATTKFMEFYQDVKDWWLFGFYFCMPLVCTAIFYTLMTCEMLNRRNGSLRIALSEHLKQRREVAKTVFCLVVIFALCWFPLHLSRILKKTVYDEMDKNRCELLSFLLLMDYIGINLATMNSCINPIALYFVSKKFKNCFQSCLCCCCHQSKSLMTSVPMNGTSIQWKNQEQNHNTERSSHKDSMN
From the text: Functional in vitro assay system for searching for endothelin receptor (subtype A) antagonists This assay system is a functional cell-based assay for endothelin receptors. Certain cells when stimulated with endothelin 1 (ET1) show an increase in the intracellular calcium concentration. This increase can be measured in intact cells which have been loaded with calcium-sensitive dyes. […] The cells were then washed twice with buffer A and resuspended at 2 10^6 /ml. The fluorescence signal at Ex/Em 380/510 from 2×10^5 cells per mL was recorded continuously at 30° C. The test substances were added to the cells and, after incubation with ET1 for 3 min, the maximum change in the fluorescence was determined. The response of the cells to ET1 without previous addition of a test substance served as control and was set equal to 100%.

SMILES: COc1cc(OC)nc(OC(C(=O)O)C(C)(Oc2ccc(C(C)C)cc2)c2ccccc2)n1 (stereo not drawn) [Compound 4.42]
- Ki (human ETA receptor; cloned human ETA receptor-expressing CHO cell membranes, 25 pM [125I]-ET1, 25° C., 30 min, read-out: Ki ET-A): 250 nM
- Ki (ETB receptor; guinea pig cerebellar membranes, 25 pM [125I]-RZ3, 25° C., 30 min, read-out: Ki ET-B): 3000 nM
- IC50 ([1]; rat fibroblasts loaded with Fura 2-am, ET1-induced fluorescence change, 30° C., read-out: IC50): 740 nM

SMILES: COc1cc(OC)nc(OC(C(=O)O)C(C)(Oc2ccc(SC)cc2)c2ccccc2)n1 (stereo not drawn) [Compound 4.58]
- Ki (human ETA receptor): 160 nM
- Ki (ETB receptor): 4700 nM
- IC50 [1]: 1000 nM
